This passage reports Activity and Ke results from ChEMBL document CHEMBL4033769, “Simple Tetrahydroisoquinolines Are Potent and Selective Kappa Opioid Receptor Antagonists” (ACS Med Chem Lett, 2017).

For experiment [1], the target named is Kappa-type opioid receptor (Homo sapiens) (UniProt P41145). Description: Agonist activity at human kappa-opioid receptor expressed in CHO cell membranes assessed as induction of [35S]GTPgammaS binding at 10 uM after 60 mins by scintillation counting method. It is filed as functional.
Sequence of Kappa-type opioid receptor (Homo sapiens) (P41145 whole entry): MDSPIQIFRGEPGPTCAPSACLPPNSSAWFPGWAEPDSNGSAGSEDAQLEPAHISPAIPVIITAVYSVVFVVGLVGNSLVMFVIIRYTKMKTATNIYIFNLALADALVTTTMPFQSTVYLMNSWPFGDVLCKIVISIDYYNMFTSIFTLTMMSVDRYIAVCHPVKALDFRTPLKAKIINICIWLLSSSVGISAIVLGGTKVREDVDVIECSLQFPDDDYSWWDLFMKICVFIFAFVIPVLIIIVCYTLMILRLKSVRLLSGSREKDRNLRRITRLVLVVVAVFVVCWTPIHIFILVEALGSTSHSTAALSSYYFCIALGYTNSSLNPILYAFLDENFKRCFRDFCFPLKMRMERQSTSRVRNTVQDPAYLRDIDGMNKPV
The target of experiment [2] is Delta-type opioid receptor (Homo sapiens) (UniProt P41143).
Sequence of Delta-type opioid receptor (Homo sapiens) (P41143 whole entry): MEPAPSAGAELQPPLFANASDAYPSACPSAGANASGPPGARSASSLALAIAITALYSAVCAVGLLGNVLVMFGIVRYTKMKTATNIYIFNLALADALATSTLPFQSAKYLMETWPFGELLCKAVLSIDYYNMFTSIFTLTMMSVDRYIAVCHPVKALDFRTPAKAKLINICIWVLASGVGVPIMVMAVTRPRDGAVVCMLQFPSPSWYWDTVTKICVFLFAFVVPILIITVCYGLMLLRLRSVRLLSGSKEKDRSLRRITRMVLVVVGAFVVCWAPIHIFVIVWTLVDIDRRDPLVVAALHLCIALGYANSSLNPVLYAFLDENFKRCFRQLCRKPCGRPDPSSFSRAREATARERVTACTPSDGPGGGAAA
Description: Antagonist activity at human delta-opioid receptor expressed in CHO cell membranes assessed as inhibition of DPDPE agonist-induced [35S]GTPgammaS binding after 60 mins by scintillation counting method
In experiment [3] the target is Mu-type opioid receptor (Homo sapiens) (UniProt P35372). Put plainly: Agonist activity at human mu-opioid receptor expressed in CHO cell membranes assessed as induction of [35S]GTPgammaS binding at 10 uM after 60 mins by scintillation counting method. It is filed as functional.
Sequence of Mu-type opioid receptor (Homo sapiens) (P35372 whole entry): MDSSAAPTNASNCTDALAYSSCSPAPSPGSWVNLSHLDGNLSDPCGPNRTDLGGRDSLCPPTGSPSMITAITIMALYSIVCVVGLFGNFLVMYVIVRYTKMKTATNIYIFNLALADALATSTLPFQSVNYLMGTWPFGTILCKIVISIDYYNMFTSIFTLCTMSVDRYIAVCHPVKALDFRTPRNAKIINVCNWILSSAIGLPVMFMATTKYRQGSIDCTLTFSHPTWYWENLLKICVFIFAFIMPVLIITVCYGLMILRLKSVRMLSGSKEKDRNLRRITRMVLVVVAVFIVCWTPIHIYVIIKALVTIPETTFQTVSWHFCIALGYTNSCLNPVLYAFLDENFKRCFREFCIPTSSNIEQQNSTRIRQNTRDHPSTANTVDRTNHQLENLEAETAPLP
The target of experiment [4] is Delta-type opioid receptor (Homo sapiens) (UniProt P41143). Description: Agonist activity at human delta-opioid receptor expressed in CHO cell membranes assessed as induction of [35S]GTPgammaS binding at 10 uM after 60 mins by scintillation counting method. The class given is functional.

SMILES strings stand for the structures. The source made the active and inactive calls. The calls are words filed in the database; no cut-off is given here.

`CC(C)[C@@H](CC1CCCCC1)NC(=O)[C@H]1Cc2ccc(O)cc2CN1`: the result in experiment [1], in experiment [3] and in experiment [4] was inactive. The Ke in experiment [2] worked out at 640 nM.
As to `CC(C)[C@@H](CN1CCCCC1)NC(=O)[C@H]1Cc2ccc(O)cc2CN1`, the result in experiment [1], in experiment [3] and in experiment [4] was inactive.
